Data as given in paper PMC6859963, “Fragment screening for a protein-protein interaction inhibitor to WDR5” (Structural Dynamics, 2019).
Structures can show the parent of a compound that is named as a salt. One block for each molecule: values may come before it.

Legend:
WDR5 [1] = target: T1, WDR5 (Homo sapiens, UniProt P61964); experiment: SPR binding of compounds to captured biotinylated WDR5, 1:1 steady-state affinity fit; conditions: for Kd: SPR; for LE (ligand efficiency): from SPR KD
T1 construct: hexahistidine-SUMO (N, cleaved yes); made in house; host or cells: E. coli BL21-CodonPlus-RIL
Method: SPR assay of small molecule binding used minimally biotinylated WDR5^23–334 protein captured on streptavidin-coated SPR chips. WDR5 (1 eq.) was mixed with freshly water-dissolved EZ-link Sulfo-NHS-LC-LC-biotin (0.8 eq., Thermofisher Scientific). The reaction mixture was incubated on ice for 2 h; unreacted biotin reagent was then removed from the mixture using size-exclusion chromatography on a Superdex 75 (10/300) column equilibrated in storage buffer (10 mM HEPES, 150 mM NaCl, 5 mM DTT).
(§1) SPR experiments were performed using a Biacore T200 or S200 biosensor with a CM5 chip (GE Healthcare). Streptavidin was coupled to the chip surface at 310 K in HBS-P+ running buffer (10 mM HEPES, pH 7.4, 150 mM NaCl, 0.05%[v/v] Tween-20) after a 10 min activation with a 1:1 mixture of NHS/EDC (N-hydroxysuccinimide/N-ethyl-N′-(3-[…])carbodiimide). Protein was diluted to 100 μg·ml^−1 at pH 4.5 (10 mM sodium acetate, 0.005%[v/v] Tween-20) and injected for 7 min. The surface was then blocked with 1 M ethanolamine, pH 8.0, for 7 min. Immobilization levels were typically 7000–13 000 RU, but as low as 1800 RU for compounds 55, 59, and Ac-ARV-NH2, where fitting uses a 1:1 kinetic model to determine dissociation rates. WDR5 capture was then performed over the streptavidin-coupled flow-cells at 293 K in HBS-P+ buffer with the addition of 5 mM DTT. Capture levels for fragment screening were ∼19 000 RU, while capture levels for subsequent testing were ∼9000 RU. The N-terminal domain of heat-shock protein 90 (Hsp90, UnprotKB P08238, residues 1–382) was captured (∼11 000 RU) during screening to provide an unrelated negative control surface, activity being monitored with intermittent ADP (adenosine diphosphate) injections. Biotin was subsequently injected over WDR5- and negative control protein-bound flow-cells to block remaining unbound streptavidin. SPR experiments were performed at 298 K in SPR running buffer containing 50 mM HEPES, 150 mM NaCl, 5 mM DTT, and 0.05%[v/v] Tween-20, 2%[v/v] DMSO. Initial fragments were screened at 100 μM. When performing dose-response testing, analytes were serially diluted (2- or 3-fold), injected for 30 s contact time, and allowed to dissociate for 30 s. The flow rate was 60 μl·min^−1. Binding sensorgrams were processed, solvent-corrected, and double-referenced using Scrubber software (BioLogic Software, Australia). […] Therefore, to determine binding affinities (KD values), responses at equilibrium for each analyte were fitted to a 1:1 steady-state affinity model available within Scrubber.

WDR5 [2] = target: T1, WDR5; experiment: SPR 1:1 kinetic model to determine dissociation rates from WDR5; assay type: binding; conditions: for koff: read-out: kd (dissociation rate); for binding to WDR5: samples were mixtures of diastereomers
Excerpt: Compound 1 was identified as a highly ligand efficient hit that binds the phenylalanine clamp of the WIN site, approximating the arginine headgroup of the WIN motif. […] Two peptidomimetics, with 1 replacing the arginine, were synthesized. Compounds 55 and 59 are analogs of the Ac-ARV-NH2 and Ac-α-MeAla-RV-NH2 tripeptides,[21] respectively (Fig. 5). […] The hydroxymethyl imidazole thus appears to be a good replacement for the charged arginine residue in this context, and 59 may serve as a tool compound with more sensible physicochemical parameters than previous potent tripeptides. […] Binding constants of compounds 55 and 59 are thus difficult to derive. Instead, the (concentration independent) dissociation rates have been reported for 55 and 59 (kd = 0.067 s^−1 and 0.025 s^−1, respectively) to provide a more meaningful comparison to the analogous tripeptide Ac-ARV-NH2 (kd = 0.054 s^−1). […] However, if multiple diastereomers of 55/59 were indeed binding WDR5, it would not detract from the conclusion that hydroxymethyl imidazole-peptidomimetics have potential as WDR5 WIN-site inhibitors.
as §1

[3] = Table II, fragment core, mean ± SE (SE not reported where n = 1)
[4] = Table III, ether-derivatized 2, mean ± SE (SE not reported where n = 1)
[5] = Table IV, derivatives of 2, mean ± SE (SE not reported where n = 1)
[6] = 1:1 kinetic model, concentration independent, 55 and 59 tested as mixtures of diastereomers

Molecule: CCCCc1ncc(CO)[nH]1 [Compound 1, (2-butyl-1H-imidazol-5-yl)methanol]
Kd (WDR5 [1]; [3]): 480 ± 30 µM
LE (ligand efficiency) (WDR5 [1]): 0.41 kcal·mol^−1·heavy atom^−1

Molecule: OCc1c[nH]cn1 [Compound 3]
Kd (WDR5 [1]): > 3000 µM
potency estimated from few doses (WDR5 [1]; Table II, estimated from single concentration (100 μM) screen, read-out: KD): > 3000 µM

Molecule: Cc1cc(CO)n[nH]1 [Compound 4]
Kd (WDR5 [1]; [3]): > 3000 µM

Molecule: OCc1ncc[nH]1 [Compound 5]
Kd (WDR5 [1]; [3]): > 3000 µM

Molecule: COCc1c[nH]c(C)n1 [Compound 7]
Kd (WDR5 [1]; [4]): > 3000 µM

Molecule: Cc1nc(COC(C)C)c[nH]1 [Compound 9, 4-(isopropoxymethyl)-2-methyl-1H-imidazole]
Kd (WDR5 [1]; [4]): > 3000 µM

Molecule: Cc1nc(COCC(F)(F)F)c[nH]1 [Compound 10, 2-methyl-4-((2,2,2-trifluoroethoxy)methyl)-1H-imidazole]
Kd (WDR5 [1]; [4]): > 3000 µM

Molecule: Cc1nc(COCc2ccccc2)c[nH]1 [Compound 11, 4-((benzyloxy)methyl)-2-methyl-1H-imidazole]
Kd (WDR5 [1]; [4]): 950 µM

Molecule: OCc1c[nH]c(-c2ccccc2)n1 [Compound 13]
Kd (WDR5 [1]): 5200 µM
Kd (WDR5 [1]; [5]): > 3000 µM

Molecule: OCc1c[nH]c(CCCc2ccccc2)n1 [Compound 16, (2-(3-phenylpropyl)-1H-imidazol-4-yl)methanol]
Kd (WDR5 [1]; [5]): 140 ± 30 µM
LE (ligand efficiency) (WDR5 [1]): 0.33 kcal·mol^−1·heavy atom^−1

Molecule: COC(CCc1nc(CO)c[nH]1)c1ccccc1 (stereo not shown) [Compound 17, (2-(3-methoxy-3-phenylpropyl)-1H-imidazol-4-yl)methanol]
Kd (WDR5 [1]; [5]): 22 ± 6 µM
LE (ligand efficiency) (WDR5 [1]): 0.35 kcal·mol^−1·heavy atom^−1

Molecule: NCCCCc1ncc(CO)[nH]1 [Compound 28, (2-(4-aminobutyl)-1H-imidazol-5-yl)methanol bis trifluoroacetic acid]
Kd (WDR5 [1]; [5]): 350 ± 40 µM

Molecule: CC(=O)NCCCCc1ncc(CO)[nH]1 [Compound 29, N-(4-(5-(hydroxymethyl)-1H-imidazol-2-yl)butyl)acetamide trifluoroacetic acid]
Kd (WDR5 [1]; [5]): 200 ± 10 µM

Molecule: O=C(NCCCCc1ncc(CO)[nH]1)c1ccccc1 [Compound 30, N-(4-(5-(hydroxymethyl)-1H-imidazol-2-yl)butyl)benzamide]
Kd (WDR5 [1]; [5]): 12 ± 1 µM

Molecule: O=C(Cc1ccccc1)NCCCCc1ncc(CO)[nH]1 [Compound 31, N-(4-(5-(hydroxymethyl)-1H-imidazol-2-yl)butyl)-2-phenylacetamide trifluoroacetic acid]
Kd (WDR5 [1]; [5]): 25 ± 3 µM

Molecule: COC(=O)NCCCCc1ncc(CO)[nH]1.O=C(O)C(F)(F)F [Compound 32, Methyl (4-(5-(hydroxymethyl)-1H-imidazol-2-yl)butyl)carbamate trifluoroacetic acid]
Kd (WDR5 [1]; [5]): 28.9 ± 0.5 µM
LE (ligand efficiency) (WDR5 [1]): 0.39 kcal·mol^−1·heavy atom^−1

Molecule: O=C(NCCCCc1ncc(CO)[nH]1)OCc1ccccc1 [Compound 35, Benzyl (4-(5-(hydroxymethyl)-1H-imidazol-2-yl)butyl)carbamate trifluoroacetic acid]
Kd (WDR5 [1]; [5]): 11 ± 1 µM

Molecule: COC(=O)N(CCCCc1nc(CO)c[nH]1)CC1CCNCC1 [Compound 40, Methyl (4-(4-(hydroxymethyl)-1H-imidazol-2-yl)butyl)(piperidin-4-ylmethyl)carbamate bis trifluoroacetic acid]
Kd (WDR5 [1]; [5]): 19 ± 3 µM

Molecule: COC(=O)N(CCCCc1nc(CO)c[nH]1)Cc1cc[nH]c(=O)c1 [Compound 47, Methyl (4-(4-(hydroxymethyl)-1H-imidazol-2-yl)butyl)((2-oxo-1,2-dihydropyridin-4-yl)methyl)carbamate hydrochloride]
Kd (WDR5 [1]; [5]): 24.2 ± 0.2 µM

Molecule: CC(=O)NC(C)C(=O)NC(CCCc1nc(CO)c[nH]1)C(=O)NC(C(N)=O)C(C)C (stereo not shown) [Compound 55, 2-(2-acetamidopropanamido)-N-(1-amino-3-methyl-1-oxobutan-2-yl)-5-(4-(hydroxymethyl)-1H-imidazol-2-yl)pentanamide]
koff (WDR5 [2]; [6]): 0.067 s⁻¹
binding to WDR5 (WDR5 [2]): Binding was observed

Molecule: Ac-ARV-NH2 [reference compound]
kd (dissociation rate) (WDR5 [2]; [6]): 0.054 s⁻¹

Continued, values first:

Kd (WDR5 [1]; [3]): 260 ± 20 µM
Kd (WDR5 [1]; [4]): 260 ± 20 µM
LE (ligand efficiency) (WDR5 [1]): 0.61 kcal·mol^−1·heavy atom^−1
Molecule: Cc1nc(CO)c[nH]1 [Compound 2, (2-methyl-imidazol-4-yl)methanol]

Kd (WDR5 [1]; [3]): 2100 µM
LE (ligand efficiency) (WDR5 [1]): 0.60 kcal·mol^−1·heavy atom^−1
Molecule: Cc1ncc[nH]1 [Compound 6, 2-methyl imidazole]

Kd (WDR5 [1]; [4]): > 3000 µM
Molecule: CCCOCc1c[nH]c(C)n1 [Compound 8, 2-methyl-4-(propoxymethyl)-1H-imidazole]

Kd (WDR5 [1]; [5]): 530 µM
Molecule: OCc1c[nH]c(Cc2ccccc2)n1 [Compound 14, (2-benzyl-1H-imidazol-4-yl)methanol]

Kd (WDR5 [1]; [5]): 300 ± 40 µM
Molecule: OCc1c[nH]c(CCc2ccccc2)n1 [Compound 15, (2-phenethyl-1H-imidazol-4-yl)methanol]

Kd (WDR5 [1]; [5]): 890 µM
Molecule: CNC(=O)CCc1nc(CO)c[nH]1 [Compound 23, 3-(4-(hydroxymethyl)-1H-imidazol-2-yl)-N-methylpropanamide]

Kd (WDR5 [1]; [5]): 240 ± 10 µM
Molecule: CCOC(=O)CCc1nc(CO)c[nH]1 [Compound 24, ethyl 3-(4-(hydroxymethyl)-1H-imidazol-2-yl)propanoate]

Kd (WDR5 [1]; [5]): 4.5 ± 0.3 µM
Molecule: COC(=O)N(CCCCc1ncc(CO)[nH]1)Cc1ccccc1 [Compound 37, Methyl benzyl(4-(5-(hydroxymethyl)-1H-imidazol-2-yl)butyl)carbamate trifluoroacetic acid]

Kd (WDR5 [1]; [5]): 98.6 ± 0.6 µM
fold weaker binding than 37 (WDR5 [1]; ratio of SPR KD values): 20 fold
Molecule: COC(=O)N(CCCCc1nc(CO)c[nH]1)Cc1ccc(=O)[nH]c1.O=C(O)C(F)(F)F [Compound 45, Methyl (4-(4-(hydroxymethyl)-1H-imidazol-2-yl)butyl)((6-oxo-1,6-dihydropyridin-3-yl)methyl)carbamate trifluoroacetic acid]

koff (WDR5 [2]; [6]): 0.025 s⁻¹
binding to WDR5 (WDR5 [2]): Binding was observed
Molecule: CC(=O)NC(C)(C)C(=O)NC(CCCc1nc(CO)c[nH]1)C(=O)NC(C(N)=O)C(C)C (stereo not shown) [Compound 59, 2-(2-acetamido-2-methylpropanamido)-N-(1-amino-3-methyl-1-oxobutan-2-yl)-5-(4-(hydroxymethyl)-1H-imidazol-2-yl)pentanamide]
